Measurements taken from ChEMBL document CHEMBL1201862, “PubChem BioAssay data set” (2004).
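Dose response: 5 concentrations. Exposure: 48 h. Format: 96-well plates. Endpoint: linear interpolation; highest concentration if not reached. GI50 marks 50% less growth.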 Activity calls are given as the source filed them. Cut-off read from the data, not from the text of the source: active = GI50 up to about 1.1 µM and inactive = higher.

What was measured:
Assay in all cases: inhibition of tumour cell growth, NCI panel, 48 h
HCT-15 = tested on: HCT-15
COLO 205 = tested on: COLO 205
IGROV-1 = tested on: IGROV-1
OVCAR-8 = tested on: OVCAR-8
DMS-114 = tested on: DMS-114
OVCAR-4 = tested on: OVCAR-4
UACC-62 = tested on: UACC-62
Malme-3M = tested on: Malme-3M
SNB-78 = tested on: SNB-78
NCI-H522 = tested on: NCI-H522
SF-295 = tested on: SF-295
SN12C = tested on: SN12C
786-0 = tested on: 786-0
CAKI-1 = tested on: CAKI-1
HT-29 = tested on: HT-29
HL-60 = tested on: HL-60
NCI-H460 = tested on: NCI-H460
OVCAR-3 = tested on: OVCAR-3
NCI-H23 = tested on: NCI-H23
A498 = tested on: A498
NCI-H226 = tested on: NCI-H226
UACC-257 = tested on: UACC-257
RPMI-8226 = tested on: RPMI-8226
DLD-1 = tested on: DLD-1
DMS-273 = tested on: DMS-273
U-251 = tested on: U-251
OVCAR-5 = tested on: OVCAR-5
A549 = tested on: A549
HCC 2998 = tested on: HCC 2998
XF498 = tested on: XF498
CCRF-CEM = tested on: CCRF-CEM
M19-MEL = tested on: M19-MEL
KM12 = tested on: KM12
HOP-18 = tested on: HOP-18
SF-539 = tested on: SF-539
ACHN = tested on: ACHN
MOLT-4 = tested on: MOLT-4
EKVX = tested on: EKVX
K562 = tested on: K562
HCT-116 = tested on: HCT-116
SNB-19 = tested on: SNB-19
SK-MEL-28 = tested on: SK-MEL-28
KM-20L2 = tested on: KM-20L2
SK-MEL-2 = tested on: SK-MEL-2
SK-MEL-5 = tested on: SK-MEL-5
M14 = tested on: M14
HOP-92 = tested on: HOP-92
LOX IMVI = tested on: LOX IMVI
UO-31 = tested on: UO-31
TK-10 = tested on: TK-10
SF-268 = tested on: SF-268
HOP-62 = tested on: HOP-62
SW-620 = tested on: SW-620
LXFL 529 = tested on: LXFL 529
SK-OV-3 = tested on: SK-OV-3
SR = tested on: SR
RXF 393 = tested on: RXF 393
SNB-75 = tested on: SNB-75

Measured: GI50

O/N=C\C(=N/O)Nc1ccc(Cc2ccc(NC(/C=N\O)=N/O)cc2)cc1
inactive: COLO 205 54.7 µM | IGROV-1 34.4 µM | OVCAR-8 36.1 µM | DMS-114 69.3 µM | OVCAR-4 57.9 µM | UACC-62 21.2 µM | Malme-3M 24.7 µM | SNB-78 > 100 µM | NCI-H522 29.6 µM | SF-295 21.7 µM | SN12C 35.3 µM | 786-0 58.6 µM | CAKI-1 18.8 µM | HT-29 60.5 µM | HL-60 22.5 µM | NCI-H460 34.8 µM | OVCAR-3 42.3 µM | NCI-H23 55.5 µM | A498 77.4 µM | NCI-H226 18.1 µM | UACC-257 56.1 µM | RPMI-8226 30.5 µM | DLD-1 23.9 µM | DMS-273 43.9 µM | U-251 37.5 µM | OVCAR-5 89.9 µM | A549 87.5 µM | HCC 2998 83.9 µM | XF498 71.3 µM | CCRF-CEM 45.4 µM | M19-MEL 47 µM | KM12 54 µM | HOP-18 37.9 µM | SF-539 45.2 µM | ACHN 31.6 µM | MOLT-4 30.8 µM | EKVX 25.4 µM | K562 37.9 µM | HCT-116 79.4 µM | SNB-19 97.9 µM | SK-MEL-28 > 100 µM | KM-20L2 44.3 µM | SK-MEL-2 50.7 µM | SK-MEL-5 48.3 µM | M14 27.5 µM | HOP-92 25.8 µM | LOX IMVI 40.6 µM | UO-31 13.2 µM | TK-10 45.2 µM | SF-268 > 100 µM | HOP-62 27.4 µM | SW-620 52.1 µM | LXFL 529 39.4 µM | SK-OV-3 33.2 µM
75.3 µM: HCT-15

O=C(N[C@@H]1C=CCC[C@@H]1c1ccccc1)OCc1ccccc1
inactive: COLO 205 18.5 µM | IGROV-1 24.2 µM | OVCAR-8 20.1 µM | DMS-114 21.7 µM | OVCAR-4 18.6 µM | UACC-62 14.1 µM | Malme-3M 19.3 µM | SNB-78 32.5 µM | NCI-H522 14.8 µM | SF-295 20.4 µM | SN12C 16.9 µM | 786-0 18.7 µM | CAKI-1 12.2 µM | HT-29 23.7 µM | HL-60 11.6 µM | NCI-H460 17.9 µM | OVCAR-3 16.8 µM | SR 15.1 µM | NCI-H23 22.8 µM | A498 19.1 µM | NCI-H226 19 µM | UACC-257 17.5 µM | RPMI-8226 18 µM | DLD-1 23.7 µM | DMS-273 16.4 µM | U-251 17.5 µM | OVCAR-5 17.8 µM | RXF 393 20.3 µM | A549 25.6 µM | HCC 2998 20.6 µM | XF498 19 µM | CCRF-CEM 16.4 µM | M19-MEL 21.5 µM | KM12 17.5 µM | HOP-18 19.2 µM | SF-539 18.9 µM | ACHN 24 µM | MOLT-4 13.1 µM | EKVX 23.2 µM | K562 23.7 µM | HCT-116 18.1 µM | SNB-19 32.7 µM | SK-MEL-28 21.9 µM | KM-20L2 20 µM | SK-MEL-2 16.3 µM | SK-MEL-5 17.9 µM | M14 17.9 µM | HOP-92 16.5 µM | LOX IMVI 15.2 µM | UO-31 18.1 µM | SNB-75 19.6 µM | TK-10 15.3 µM | SF-268 25 µM | HOP-62 18.5 µM | SW-620 22.9 µM | LXFL 529 18.8 µM | SK-OV-3 30.4 µM
17.9 µM: HCT-15

C=C1Oc2nc3ccccc3c(=O)n2C1(C)C
> 100 µM: HCT-15
inactive: COLO 205 > 100 µM | IGROV-1 > 100 µM | OVCAR-8 > 100 µM | DMS-114 > 100 µM | OVCAR-4 > 100 µM | UACC-62 > 100 µM | Malme-3M > 100 µM | SNB-78 > 100 µM | NCI-H522 > 100 µM | SF-295 > 10 µM | SN12C > 100 µM | 786-0 > 100 µM | CAKI-1 > 100 µM | HT-29 > 100 µM | HL-60 > 100 µM | NCI-H460 > 100 µM | OVCAR-3 > 10 µM | NCI-H23 > 100 µM | A498 > 100 µM | NCI-H226 > 100 µM | UACC-257 > 100 µM | RPMI-8226 > 100 µM | DLD-1 > 100 µM | DMS-273 > 100 µM | U-251 > 100 µM | OVCAR-5 > 100 µM | A549 > 100 µM | HCC 2998 > 100 µM | XF498 > 100 µM | CCRF-CEM > 100 µM | M19-MEL > 100 µM | KM12 > 10 µM | HOP-18 > 100 µM | SF-539 > 100 µM | ACHN > 100 µM | MOLT-4 > 100 µM | EKVX > 100 µM | K562 > 100 µM | HCT-116 > 100 µM | SNB-19 > 100 µM | SK-MEL-28 > 100 µM | KM-20L2 > 100 µM | SK-MEL-2 > 100 µM | SK-MEL-5 > 100 µM | M14 > 100 µM | HOP-92 > 100 µM | LOX IMVI > 100 µM | UO-31 > 100 µM | TK-10 > 100 µM | SF-268 > 100 µM | HOP-62 > 100 µM | SW-620 > 100 µM | LXFL 529 > 100 µM | SK-OV-3 > 100 µM

Cc1ccccc1N1C(=O)C2C=CC(n3[nH]c(=O)n(Cc4ccccc4)c3=O)CC2C1=O (stereo not drawn)
inactive: COLO 205 > 100 µM | IGROV-1 > 100 µM | OVCAR-8 > 100 µM | DMS-114 > 100 µM | UACC-62 > 100 µM | Malme-3M > 100 µM | SNB-78 > 100 µM | NCI-H522 > 100 µM | SF-295 > 100 µM | SN12C > 100 µM | 786-0 > 100 µM | CAKI-1 > 100 µM | HT-29 > 100 µM | HL-60 > 100 µM | NCI-H460 > 100 µM | OVCAR-3 > 100 µM | NCI-H23 > 100 µM | A498 > 100 µM | NCI-H226 > 100 µM | UACC-257 > 100 µM | RPMI-8226 > 100 µM | DLD-1 > 100 µM | DMS-273 > 100 µM | U-251 > 100 µM | OVCAR-5 > 100 µM | RXF 393 > 100 µM | A549 > 100 µM | HCC 2998 > 100 µM | XF498 > 100 µM | CCRF-CEM > 100 µM | M19-MEL > 100 µM | KM12 > 100 µM | HOP-18 > 100 µM | SF-539 > 100 µM | ACHN > 100 µM | MOLT-4 > 100 µM | EKVX > 100 µM | K562 > 100 µM | HCT-116 > 100 µM | SNB-19 > 100 µM | SK-MEL-28 > 100 µM | KM-20L2 > 100 µM | SK-MEL-2 > 100 µM | SK-MEL-5 > 100 µM | M14 > 100 µM | HOP-92 > 100 µM | LOX IMVI > 100 µM | UO-31 > 100 µM | SNB-75 70 µM | TK-10 > 100 µM | SF-268 > 100 µM | HOP-62 > 100 µM | SW-620 > 100 µM | LXFL 529 > 100 µM | SK-OV-3 > 100 µM
> 100 µM: HCT-15

C=C1CCC2[C@@H](CCC3[C@]2(C)CCC[C@]3(C)C(=O)OC)C1CCO (stereo partly drawn)
11.2 µM: HCT-15
inactive: COLO 205 13 µM | IGROV-1 13.6 µM | OVCAR-8 18.8 µM | DMS-114 5.11 µM | OVCAR-4 12.8 µM | UACC-62 11.2 µM | Malme-3M 14.9 µM | SNB-78 16.3 µM | NCI-H522 5.2 µM | SF-295 16.3 µM | SN12C 11.9 µM | 786-0 18.3 µM | CAKI-1 12.1 µM | HT-29 4.37 µM | HL-60 4.02 µM | NCI-H460 6.49 µM | OVCAR-3 12.6 µM | NCI-H23 9.35 µM | A498 15.8 µM | NCI-H226 14.4 µM | UACC-257 5.98 µM | RPMI-8226 3.12 µM | DLD-1 14.2 µM | DMS-273 10.5 µM | U-251 11.1 µM | OVCAR-5 14.9 µM | A549 14.4 µM | XF498 10.2 µM | CCRF-CEM 10.5 µM | M19-MEL 15 µM | KM12 12.5 µM | HOP-18 16 µM | SF-539 13.4 µM | ACHN 14.8 µM | MOLT-4 4 µM | EKVX 20.5 µM | K562 6 µM | HCT-116 5.98 µM | SNB-19 14 µM | SK-MEL-28 13.9 µM | KM-20L2 9.66 µM | SK-MEL-2 15.1 µM | SK-MEL-5 4.53 µM | M14 13.6 µM | HOP-92 7.08 µM | UO-31 14.7 µM | SNB-75 7.46 µM | TK-10 18.6 µM | SF-268 11.3 µM | HOP-62 19.8 µM | SW-620 13.1 µM | LXFL 529 8.89 µM | SK-OV-3 29.3 µM
